Data: patent publication US20040076974A1, “Liver necrosis predictive genes” (priority 2002, published 2004)
Several values for one entry are separate records, joined by “and”; a condition that tells them apart may be missing. Identical values can stand only once. Like-named read-outs stand apart in the source and are kept apart here.

Tested on: toxicologically relevant rat genes (rat CT array)
[1] = 24 h, dose 20, ratio treatment/control, listed as PBARB
[2] = 24 h, dose 80, ratio treatment/control, listed as PBARB

## CCC1(c2ccccc2)C(=O)NC(=O)NC1=O [phenobarbital]
[1]
  3-hydroxyisobutyrate dehydrogenase: 1.08 and 1.006
  14-3-3 zeta: 1.208 and 1.207
  17-beta hydroxysteroid dehydrogenase, type 2: 1.581 and 1.324
  60S ribosomal protein L6: 1.352 and 1.202
  ATPase inhibitor (rat mitochondrial IF1 protein): 0.6195 and 0.719
  Alpha 1 - inhibitor III: 0.5583 and 0.815
  Alpha-2-macroglobulin: 0.7668 and 0.9845
  Bax (alpha): 1.204 and 1.029
  Beta-actin: 1.31 and 1.008
  Calpactin I heavy chain: 1.101 and 1.191
  Carbamyl phosphate synthetase I: 0.7852 and 0.892
  Carbonic anhydrase III: 0.977 and 0.617
  Carbonyl reductase: 0.9613 and 0.916
  Cathepsin L, sequence 2: 1.563 and 1.367
  Cofilin: 0.9117
  Cyclin G: 1
  DNA polymerase beta: 1.056
  Dynamin-1 (D100): 0.8477 and 0.8322
  Endogenous retroviral sequence, 5′ and 3′ LTR: 0.9945 and 0.7515
  Enolase alpha: 1.238 and 0.9827
  Epidermal growth factor: 0.8761 and 0.9811
  Equilbrative nitrobenzylthioinosine-sensitive nucleoside transporter: 1.018 and 0.7905
  Extracellular-signal-regulated kinase 1: 1.131 and 0.7366
  Fas antigen: 1.246 and 1.226
  Gadd45: 1.009 and 1.065
  Gadd153: 1.013 and 1.011
  Gamma-actin, cytoplasmic: 1.054 and 0.8811
  Glucose-regulated protein 78: 1.261 and 1.059
  Heme oxygenase: 0.9438 and 0.9315
  Hepatic lipase: 0.6998 and 0.9047
  ID-1: 0.8693 and 1.008
  IgE binding protein: 0.8925 and 0.9114
  IkB-a: 1.305 and 0.9599
  Insulin-like growth factor I: 0.7485 and 0.9327
  Insulin-like growth factor binding protein 1: 1.727 and 1.357
  Insulin-like growth factor binding protein 3: 0.8872 and 0.9985
  Integrin beta1: 1.272 and 1.092
  L-gulono-gamma-lactone oxidase: 1.051 and 0.8183
  Liver fatty acid binding protein: 1.109 and 1.478
  MAP kinase kinase: 1.185
  Macrophage inflammatory protein-2 alpha: 1.188 and 1.009
  Matrin F/G: 1.181 and 1.074
  Matrix metalloproteinase-1: 1.164
  Melanoma-associated antigen ME491: 0.9925 and 1.119
  Monocyte chemotactic protein receptor (CCR2): 1.134
  Multidrug resistant protein-2: 1.635 and 1.128
  N-hydroxy-2-acetylaminofluorene sulfotransferase (ST1C1): 0.9899 and 0.8091
  Organic anion transporter 3: 1.248 and 1.132
  Organic cation transporter 3: 1.276 and 1.184
  Ornithine decarboxylase: 1.253 and 1.099
  PAR interacting protein: 1.254 and 1.247
  Phase-1 RCT 252: 0.9399
  Phase-1 RCT-15: 1.589
  Phase-1 RCT-33: 1.471
  Phase-1 RCT-36: 1.441
  Phase-1 RCT-39: 1.098 and 0.9997
  Phase-1 RCT-48: 0.8561
  Phase-1 RCT-49: 0.9102
  Phase-1 RCT-50: 1.003 and 0.9822
  Phase-1 RCT-83: 0.8335
  Phase-1 RCT-88: 0.963
  Phase-1 RCT-102: 0.6239
  Phase-1 RCT-117: 0.7039
  Phase-1 RCT-123: 0.9541
  Phase-1 RCT-127: 0.7569
  Phase-1 RCT-128: 0.7394 and 0.7417
  Phase-1 RCT-137: 0.7926
  Phase-1 RCT-179: 0.8634 and 0.9704
  Phase-1 RCT-181: 0.9556
  Phase-1 RCT-182: 0.8988
  Phase-1 RCT-189: 0.9743
  Phase-1 RCT-191: 1.518 and 1.291
  Phase-1 RCT-213: 1.105
  Phase-1 RCT-239: 0.8651
  Phase-1 RCT-242: 0.9504
  Phase-1 RCT-256: 0.9833
  Phase-1 RCT-258: 1.096
  Phase-1 RCT-264: 0.5841
  Phase-1 RCT-288: 0.674
  Proliferating cell nuclear antigen gene: 1.31 and 0.9115
  Ribosomal protein L13A: 1.101 and 1.176
  Ribosomal protein S8: 1.41 and 1.396
  Senescence marker protein-30: 0.7967 and 0.7544
  Sodium/bile acid cotransporter: 1.606 and 1.619
  Superoxide dismutase Mn: 1.251 and 1.032
  Thymosin beta-10: 1.095
  Transthyretin: 0.579 and 0.7326
  Ubiquitin conjugating enzyme (RAD 6 homologue): 1.219 and 1.207
  Uncoupling protein 2: 1.028 and 0.9917
  Zinc finger protein: 1.033 and 1.014
  c-jun: 0.8724 and 0.8417
  c-myc: 1.263 and 0.7701
  p53: 1.141 and 1.123
  {Ribosomal protein L6}: 1.13 and 0.9995
[2]
  3-hydroxyisobutyrate dehydrogenase: 0.9364 and 1.012 and 0.9868
  14-3-3 zeta: 1.349 and 1.439 and 1.37
  17-beta hydroxysteroid dehydrogenase, type 2: 0.7562 and 0.7908 and 0.9571
  60S ribosomal protein L6: 1.307 and 1.425
  ATPase inhibitor (rat mitochondrial IF1 protein): 0.6848 and 0.7077 and 0.6801
  Aldehyde dehydrogenase, microsomal: 1.087 and 1.048
  Alpha 1 - inhibitor III: 0.5856 and 0.4905 and 0.5622
  Alpha-2-macroglobulin: 0.9113 and 0.8593 and 0.9766
  Bax (alpha): 1.058 and 1.091 and 1.122
  Beta-actin: 1.224 and 1.246 and 1.145
  Calpactin I heavy chain: 1.134 and 1.063
  Carbamyl phosphate synthetase I: 0.8575 and 0.7797 and 0.7692
  Carbonyl reductase: 1.059 and 1.125 and 0.962
  Cathepsin L, sequence 2: 1.574 and 1.633
  Cofilin: 0.9114 and 0.8537 and 0.8627
  Cyclin G: 1.002 and 1.066 and 1.079
  DNA polymerase beta: 1.046 and 1.107
  Dynamin-1 (D100): 0.9128 and 0.9717 and 0.9326
  Endogenous retroviral sequence, 5′ and 3′ LTR: 1.21 and 0.7011 and 0.7797
  Enolase alpha: 1.121 and 1.118 and 1.149
  Epidermal growth factor: 1.003 and 1.092 and 1.144
  Equilbrative nitrobenzylthioinosine-sensitive nucleoside transporter: 0.9518 and 0.8269 and 0.9012
  Extracellular-signal-regulated kinase 1: 1.5 and 1.071 and 0.8668
  Fas antigen: 1.331 and 1.404 and 1.329
  Gadd45: 1.044 and 0.9552 and 1.022
  Gadd153: 1.008 and 0.989 and 0.9738
  Gamma-actin, cytoplasmic: 1.252 and 1.167 and 1.207
  Glucose-regulated protein 78: 1.679 and 1.668 and 1.487
  Heme oxygenase: 0.7677 and 0.7554 and 0.8649
  Hepatic lipase: 0.7302 and 1.208 and 0.6736
  ID-1: 1.015 (2×) and 0.9098
  IgE binding protein: 0.9374 and 0.898
  IkB-a: 1.024 and 1.103 and 1.096
  Insulin-like growth factor I: 0.6186 and 0.52 and 0.7677
  Insulin-like growth factor binding protein 1: 1.514 and 1.628
  Insulin-like growth factor binding protein 3: 0.6158 and 0.8747
  Integrin beta1: 1.29 and 1.37 and 1.335
  L-gulono-gamma-lactone oxidase: 0.6365 and 0.6402 and 0.7055
  Liver fatty acid binding protein: 0.8038 and 0.7393 and 0.8984
  MAP kinase kinase: 1.002 and 1.108
  Macrophage inflammatory protein-2 alpha: 1.093 and 1.12 and 1.177
  Matrin F/G: 0.9519 and 0.9552 and 1.004
  Matrix metalloproteinase-1: 1.245 and 1.194 and 1.355
  Melanoma-associated antigen ME491: 1.089 and 0.9854 and 1.045
  Monocyte chemotactic protein receptor (CCR2): 1.034 and 1.086 and 1.071
  Multidrug resistant protein-2: 1.301 and 1.556 and 1.405
  N-hydroxy-2-acetylaminofluorene sulfotransferase (ST1C1): 0.7492 and 0.7954 and 0.8182
  Nucleoside diphosphate kinase beta isoform: 1.36 and 1.288 and 1.362
  Organic anion transporter 3: 1.251 and 1.195 and 1.053
  Organic cation transporter 3: 1.211 and 1.277 and 1.36
  Ornithine decarboxylase: 1.262 and 1.294 and 1.161
  PAR interacting protein: 1.196 and 1.432 and 1.205
  Phase-1 RCT 252: 0.772 and 0.7405
  Phase-1 RCT-15: 1
  Phase-1 RCT-33: 1.288
  Phase-1 RCT-37: 1.101
  Phase-1 RCT-39: 1.631 and 1.876 and 2.263
  Phase-1 RCT-40: 0.9657 and 1.099
  Phase-1 RCT-48: 0.6407
  Phase-1 RCT-72: 0.9031 and 0.8598
  Phase-1 RCT-83: 0.7773
  Phase-1 RCT-88: 0.8891
  Phase-1 RCT-89: 0.9166
  Phase-1 RCT-102: 0.7133 and 0.4783 and 0.5208
  Phase-1 RCT-123: 0.9384 and 1.104
  Phase-1 RCT-137: 0.8817
  Phase-1 RCT-154: 1.303
  Phase-1 RCT-180: 1.296
  Phase-1 RCT-181: 0.9889
  Phase-1 RCT-182: 0.9123
  Phase-1 RCT-189: 0.8764 and 0.754 and 0.6881
  Phase-1 RCT-191: 1.599
  Phase-1 RCT-214: 0.9342 and 1.408
  Phase-1 RCT-239: 0.5982 and 0.595
  Phase-1 RCT-241: 1.293
  Phase-1 RCT-242: 0.9855 and 0.8679 and 0.8934
  Phase-1 RCT-256: 0.8602
  Phase-1 RCT-264: 0.5789 and 0.5647 and 0.5936
  Phase-1 RCT-270: 0.9344 and 0.9311
  Phase-1 RCT-271: 1.204 and 1.753
  Phase-1 RCT-291: 1.285
  Phase-1 RCT-296: 0.8165
  Proliferating cell nuclear antigen gene: 1.007 and 0.9415 and 1.108
  Ribosomal protein L13A: 1.209 and 1.299
  Ribosomal protein S8: 1.309 and 1.3 and 1.45
  Ribosomal protein S17: 1.52
  Senescence marker protein-30: 0.4601 and 0.4705 and 0.6829
  Sodium/bile acid cotransporter: 2.871 and 2.806 and 2.757
  Superoxide dismutase Mn: 1.266 and 1.52 and 1.416
  Thymosin beta-10: 0.9766 and 1.212
  Transthyretin: 0.5528 and 0.5255 and 0.5896
  Ubiquitin conjugating enzyme (RAD 6 homologue): 1.202 and 1.253 and 1.239
  Uncoupling protein 2: 1.015 and 0.8977 and 1.15
  Zinc finger protein: 0.9857 and 1.001 and 0.984
  c-jun: 0.6641 and 0.6214 and 0.6871
  c-myc: 1.056 and 0.76 and 0.7591
  p53: 1.049 and 1.111 and 0.9729
  {Ribosomal protein L6}: 1.301
rat, in vivo
  Paraoxonase 1: 0.7914 and 0.865 and 0.7219 and 0.8315 and 0.967
